Data: PMC6435540, “LipG a bifunctional phospholipase/thioesterase involved in mycobacterial envelope remodeling” (Bioscience Reports, 2018)
In brackets after ≈: the same amount, converted by molar mass. Entries after “also recorded” stand apart in the source; their conditions may differ. Read-outs that look alike come from different tables or passages of the source.

Legend:
rLipGMTB = assay: Inhibition of rLipGMTB, enzyme-inhibitor pre-incubation method, residual activity on pNP-C6; format: biochemical; details: for xI50: inhibitor molar excess leading to 50% enzyme inhibition; for xI50 / % inhibition xI = 4 / % inhibition xI = 100: 30-min incubation at 25°C, substrate pNP-C6; for % inhibition xI = 4: inhibitor molar excess xI = 4; for % inhibition xI = 100: inhibitor molar excess xI = 100; for Inhibitory effect on rLipGMTB (in words): pure rLipGMTB, molar excess up to xI = 100
[1] = test system: intramacrophagic M. tuberculosis; set-up: method as in PMID 28924204, PMID 30292819; details: infected macrophages; ref [28],[42]; cited from earlier work
[2] = test system: extracellular M. tuberculosis; details: cited from earlier work; for Activity against extracellular M. tuberculosis (in words): growth in vitro, ref [28],[42]; for Activity against extracellularly growing M. tuberculosis (in words): ref [27],[28]
[3] = test system: M. smegmatis lipGMS::Hyg CompMTB; assay: microbe, parasite or virus in culture; format: cell-based; details: for Fold change compared with WT: MIC50 of lipGMS::Hyg CompMTB strain versus WT; for MIC50: Mycolicibacterium smegmatis
M. smegmatis lipGMS::Hyg = assay: microbe, parasite or virus in culture; format: cell-based; details: for MIC50: Mycolicibacterium smegmatis
[4] = test system: M. smegmatis lipGMS::Hyg Comp; assay: microbe, parasite or virus in culture; format: cell-based; details: for MIC50: Mycolicibacterium smegmatis; for Fold change compared with WT: MIC50 of lipGMS::Hyg Comp strain versus WT
M. smegmatis WT = assay: REMA susceptibility testing, WT strain
Protocol: Susceptibility testing was performed using the Middlebrook 7H9 broth microdilution method. All assays for each strain were carried out at least in triplicate. MICs against the various M. smegmatis bacterial strains were determined in 96-well flat-bottom Nunclon Delta Surface microplates with lid (Thermo Fisher Scientific) using REMA method [59]. Briefly, log-phase bacteria were diluted to a cell density of 5 × 10^6 cells/ml in 7H9-S medium. […] Growth controls containing no inhibitor (i.e., bacteria only), inhibition controls containing 50 μg/ml kanamycin and sterility controls (i.e. medium only) without inoculation were also included. Plates were incubated at 37°C in a humidity chamber [60] to prevent evaporation for 3–5 days. Then, 20 µl of a 0.02% (w/v) resazurin solution was added to each well, and the plates were incubated at 37°C for color change from blue to pink or violet and for a reading of fluorescence units (FU). Fluorescence corresponding to the resazurin reduction to its metabolite resorufin was quantitated using a Tecan Spark 10M multimode microplate reader (Tecan Group Ltd, France) with excitation at 530 nm and emission at 590 nm. Fluorometric MICs were determined by fitting the RFU% sigmoidal dose–response curves [28, 29] in Kaleidagraph 4.2 software (Synergy Software). MIC values determined as the lowest compound concentrations inhibiting 50% of growth were defined as the MIC50.

[5] = Mycolicibacterium smegmatis, WT strain, REMA, concentration leading to 50% growth inhibition
[6] = WT strain, REMA, concentration leading to 50% growth inhibition

SMILES | xI50 (rLipGMTB) | % inhibition xI = 4 (rLipGMTB) [%] | % inhibition xI = 100 (rLipGMTB) [%] | Inhibitory effect on rLipGMTB (in words) (rLipGMTB) | Activity against intramacrophagic M. tuberculosis (in words) [1] | Activity against extracellular M. tuberculosis (in words) [2] | Fold change compared with WT [3] | MIC50 ([3]; lipGMS::Hyg CompMTB strain, REMA, concentration leading to 50% growth inhibition, read-out: MIC50) [µg/mL] | MIC50 (M. smegmatis lipGMS::Hyg) [µg/mL] | Activity against extracellularly growing M. tuberculosis (in words) [2] | MIC50 ([4]; lipGMS::Hyg Comp strain, REMA, concentration leading to 50% growth inhibition, read-out: MIC50) [µg/mL] | MIC50 (M. smegmatis WT; Mycolicibacterium smegmatis) [µg/mL] | Fold change compared with WT (M. smegmatis lipGMS::Hyg; MIC50 of lipGMS::Hyg strain versus WT) [×] | Fold change compared with WT [4] | MIC50 [4] [µg/mL] | MIC50 (M. smegmatis WT; [5]) [µg/mL] | MIC50 [3] [µg/mL] | MIC50 (M. smegmatis WT; [6]) [µg/mL]
CCCCCCCCCCC1CCP(=O)(OC)OC(C)=C1C(=O)OC (stereo not drawn) [CyC7α] | 5.0 | 47.4 ± 0.81 | 81.4 ± 1.6 | strong dose-dependent inhibition | active on infected macrophages only |  |  |  |  |  |  |  |  |  |  |  |  | 
CCCCCCCCCCC1CCP(=O)(OC)OC(C)=C1C(=O)OC (stereo not drawn) [CyC7β] | 48.1 | 7.9 ± 0.72 | 57.6 ± 2.0 | very weak inhibitory effects | strong activity | strong activity |  |  |  |  |  |  |  |  |  |  |  | 
CCCCCCCCCCCCC1CCP(=O)(OC)OC(C)=C1C(=O)OC (stereo not drawn) [CyC8β] | >200 | 3.2 ± 0.16 | 32.0 ± 1.5 | very weak inhibitory effects | active on infected macrophages only |  |  |  |  |  |  |  |  |  |  |  |  | 
CCCCCCCCCCCCCCCCOP1(=O)OCCC(C(=O)OC)=C(C)O1 (stereo not shown) [CyC17] | 0.98 | 66.4 ± 4.5 | 95.4 ± 2.6 | strong dose-dependent inhibition; also recorded: strong inhibitory effect | no activity | efficiently block M. tuberculosis growth in vitro | ×1.1 | 0.65 (≈ 1.46 µM) | 9.6 (≈ 21.5 µM) | only active against extracellularly growing M. tuberculosis strain | 0.6 (≈ 1.34 µM) | 0.56 (≈ 1.25 µM) |  |  |  |  |  | 
CCCCCCOc1nn(-c2ccccc2)c(=O)o1 [HPOX] | 2.9 | 58.5 ± 1.4 | 93.8 ± 5.7 | strong inhibitory effect | no activity | efficiently block M. tuberculosis growth in vitro |  |  | 18.4 (≈ 70.1 µM) | only active against extracellularly growing M. tuberculosis strain |  |  | 2.2 | ~1.5 × | 12.2 (≈ 46.5 µM) | 8.4 (≈ 32 µM) |  | 
CCCCCCOc1nn(-c2ccc(Oc3ccccc3)cc2)c(=O)o1 [HpPPOX] | 3.5 | 61.8 ± 4.7 | 73.8 ± 1.0 |  | active on infected macrophages only |  |  |  |  |  |  |  |  |  |  |  |  | 
NNC(=O)c1ccncc1 [INH, isoniazid] |  |  |  |  |  |  | ×1.3 |  | 2.9 (≈ 21.1 µM) |  |  |  |  | ×1.2 | 1.8 (≈ 13.1 µM) | 0.76 (≈ 5.54 µM) | 1.9 (≈ 13.9 µM) | 1.4 (≈ 10.2 µM)
COc1nn(-c2cccc(Oc3ccccc3)c2)c(=O)o1 [MmPPOX] | 3.1 | 54.1 ± 1.5 | 82.0 ± 3.8 |  |  |  |  |  |  |  |  |  |  |  |  |  |  | 
CCCCCCCCCCC[C@@H](C[C@@H]1OC(=O)[C@H]1CCCCCC)OC(=O)[C@H](CC(C)C)NC=O [Orlistat, reference compound] | 15.2 | 10.8 ± 0.17 | 69.5 ± 5.3 | moderate inhibitory activity |  |  | ×1.6 |  | 6.5 (≈ 13.1 µM) |  |  |  |  | ×1.3 | 1.2 (≈ 2.42 µM) | 0.97 (≈ 1.96 µM) | 1.6 (≈ 3.23 µM) | 
CO[C@H]1/C=C/O[C@@]2(C)Oc3c(C)c(O)c4c(O)c(c(/C=N/N5CCN(C)CC5)c(O)c4c3C2=O)NC(=O)/C(C)=C\C=C\[C@H](C)[C@H](O)[C@@H](C)[C@@H](O)[C@@H](C)[C@H](OC(C)=O)[C@@H]1C [RIF, rifampicin] |  |  |  |  |  |  | ×1.3 |  | 3.3 (≈ 4.01 µM) |  |  |  |  | ×1.2 | 0.89 (≈ 1.08 µM) | 1.4 (≈ 1.7 µM) | 0.96 (≈ 1.17 µM) | 0.76 (≈ 0.924 µM)
CC(C)COc1nn(-c2ccc(Oc3ccccc3)cc2)c(=O)o1 [iBpPPOX] | 14.7 | 40.5 ± 3.1 | 60.6 ± 0.22 |  | strong activity | strong activity |  |  |  |  |  |  |  |  |  |  |  | 
